The text below walks through data of US20120214847A1, “2-[1-PHENYL-5-HYDROXY-4a-SUBSTITUTED-HEXAHYDROCYCLOPENTA[F]INDAZOL-5-YL]ETHYL PHENYL DERIVATIVES AS GLUCOCORTICOID RECEPTOR LIGANDS” (Merck Sharp & Dohme Corp., priority 2009, published 2012).

For this experiment, the target named is T1, glucocorticoid receptor (Homo sapiens, UniProt P04150).
T1 construct: endogenous in cells; host or cells: HeLa (ATCC) cell lysate supernatant
T1 sequence (P04150 1-777): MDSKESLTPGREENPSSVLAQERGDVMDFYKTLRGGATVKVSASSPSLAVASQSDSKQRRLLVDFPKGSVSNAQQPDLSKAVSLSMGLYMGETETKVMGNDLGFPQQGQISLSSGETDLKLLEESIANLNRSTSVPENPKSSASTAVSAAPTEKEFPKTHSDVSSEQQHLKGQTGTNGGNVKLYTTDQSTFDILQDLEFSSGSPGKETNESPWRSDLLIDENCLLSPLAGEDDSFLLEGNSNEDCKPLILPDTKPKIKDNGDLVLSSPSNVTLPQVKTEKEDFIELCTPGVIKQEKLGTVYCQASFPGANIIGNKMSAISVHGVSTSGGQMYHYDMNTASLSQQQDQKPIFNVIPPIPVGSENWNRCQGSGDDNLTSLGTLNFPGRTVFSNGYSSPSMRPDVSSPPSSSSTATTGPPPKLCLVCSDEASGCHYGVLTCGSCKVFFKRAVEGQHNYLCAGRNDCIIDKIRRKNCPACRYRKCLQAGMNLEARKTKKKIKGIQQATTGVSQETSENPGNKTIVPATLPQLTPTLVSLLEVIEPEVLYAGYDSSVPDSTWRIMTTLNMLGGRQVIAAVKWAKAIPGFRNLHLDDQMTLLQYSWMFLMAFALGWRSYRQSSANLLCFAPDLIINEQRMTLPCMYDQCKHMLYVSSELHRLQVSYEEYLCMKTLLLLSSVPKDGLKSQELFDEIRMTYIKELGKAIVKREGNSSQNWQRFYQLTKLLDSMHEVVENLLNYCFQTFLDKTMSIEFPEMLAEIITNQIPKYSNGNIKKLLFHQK
Description: Ligand binding assay (GRBind), 3H-dexamethasone displacement in HeLa cell lysate. The settings on record: 3H-DEX tracer. The procedure, abridged: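 Cytosolic supernatant from HeLa cells in TEGM buffer (pH 7.2, with molybdate) was incubated overnight at 4 °C with 3H-dexamethasone (6 nM trace solution) and serially diluted compound, with 2% ethanol. Bound receptor was captured on hydroxylapatite, filtered and counted by scintillation. IC50s were calculated using dexamethasone as reference.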

The compound `CC[C@]12Cc3cnn(-c4ccc(F)cc4)c3C=C1CC[C@@]2(O)CCc1ccccc1S(=O)(=O)C(C)C` [Example 40, (4aS,5R)-4a-Ethyl-1-(4-fluorophenyl)-5-{2-[2-(propan-2-ylsulfonyl)phenyl]ethyl}-1,4,4a,5,6,7-hexahydrocyclopenta[f]indazol-5-ol] displayed a Ki of 2.45 nM. For `Cc1ccnc(CC[C@]2(O)CCC3=Cc4c(cnn4-c4ccc(F)cc4)C[C@@]32C2CC2)c1` [Example 36, (4aR,5R)-4a-Cyclopropyl-1-(4-fluorophenyl)-5-[2-(4-methylpyridin-2-yl)ethyl]-1,4,4a,5,6,7-hexahydrocyclopenta[f]indazol-5-ol] the value was 1.63 nM; for `CC[C@]12Cc3cnn(-c4ccc(F)cc4)c3C=C1CC[C@@]2(O)CCc1cccc(OC)c1C(N)=O` [Example 37, 2-{2-[(4aS,5R)-4a-Ethyl-1-(4-fluorophenyl)-5-hydroxy-1,4,4a,5,6,7-hexahydrocyclopenta[f]indazol-5-yl]ethyl}-6-methoxybenzamide], 2.02 nM.

In turn, `NC(=O)c1cc(F)cnc1CC[C@]1(O)CCC2=Cc3c(cnn3-c3ccc(F)cc3)C[C@@]21C1CC1` [Example 4, 2-{2-[(4aR,5R)-4a-Cyclopropyl-1-(4-fluorophenyl)-5-hydroxy-1,4,4a,5,6,7-hexahydrocyclopenta[f]indazol-5-yl]ethyl}-5-fluoropyridine-3-carboxamide] had an inhibitory constant (Ki) of 1.98 nM. For `NS(=O)(=O)c1ccccc1CC[C@]1(O)CCC2=Cc3c(cnn3-c3cccnc3)C[C@@]21C1CC1` [Example 24, 2-{2-[(4aR,5R)-4a-Cyclopropyl-5-hydroxy-1-(pyridin-3-yl)-1,4,4a,5,6,7-hexahydrocyclopenta[f]indazol-5-yl]ethyl}benzenesulfonamide] the value was 2.19 nM; for `CC[C@]12Cc3cnn(-c4cccnc4)c3C=C1CC[C@@]2(O)CCc1cccc(F)c1C(N)=O` [Example 14, 2-{2-[(4aS,5R)-4a-Ethyl-5-hydroxy-1-(pyridin-3-yl)-1,4,4a,5,6,7-hexahydrocyclopenta[f]indazol-5-yl]ethyl}-6-fluorobenzamide], 8.68 nM; for `COc1ccnc(CC[C@]2(O)CCC3=Cc4c(cnn4-c4ccc(F)cc4)C[C@@]32C2CC2)c1C(N)=O` [Example 54, 2-{2-[(4aR,5R)-4a-Cyclopropyl-1-(4-fluorophenyl)-5-hydroxy-1,4,4a,5,6,7-hexahydrocyclopenta[f]indazol-5-yl]ethyl}-4-methoxypyridine-3-carboxamide], 2.44 nM.
